Our source for the IC50 values is patent publication US9809623B2, “α4β7 peptide monomer and dimer antagonists” (Protagonist Therapeutics, Inc., priority 2014, dated 2017).

pIC50: −log10 of the molar value. Numbered stars: 1 amine (or outer) side, 2 acyl side, 3 side chain; on linkers, the order of the positions; unused ones are H or OH. Bridge positions count the residues as written; N and C are the ends. Square brackets hold non-standard residues; d marks the D form. Peptide text beside a SMILES is read from it. I, II: the chains in the order shown. X1 = O=C(CCOCCOCCOCCOCCOCCOCCOCCOCCOCCOCCOCCOCCOCCOCCOCCOCCOCCOCCOCCOCCOCCOCCOCCOCCOCCOCCC(=O)[*:2])[*:1]; X4 = O=C(CCOCCOCCOCCOCCOCCOCCOCCOCCOCCOCCOCCOCCOCCOCCC(=O)[*:2])[*:1]; d1Nal = N[C@H](Cc1cccc2ccccc12)C(=O)O; d2Nal = N[C@H](Cc1ccc2ccccc2c1)C(=O)O; Diglycolyl = O=C(COCC(=O)[*:2])[*:1]; NMeR = CN[C@@H](CCCNC(=N)N)C(=O)O; NMeE = CN[C@@H](CCC(=O)O)C(=O)O; Pen = CC(C)(S)[C@H](N)C(=O)O

Chain of α4β7 (P13612 34-1032): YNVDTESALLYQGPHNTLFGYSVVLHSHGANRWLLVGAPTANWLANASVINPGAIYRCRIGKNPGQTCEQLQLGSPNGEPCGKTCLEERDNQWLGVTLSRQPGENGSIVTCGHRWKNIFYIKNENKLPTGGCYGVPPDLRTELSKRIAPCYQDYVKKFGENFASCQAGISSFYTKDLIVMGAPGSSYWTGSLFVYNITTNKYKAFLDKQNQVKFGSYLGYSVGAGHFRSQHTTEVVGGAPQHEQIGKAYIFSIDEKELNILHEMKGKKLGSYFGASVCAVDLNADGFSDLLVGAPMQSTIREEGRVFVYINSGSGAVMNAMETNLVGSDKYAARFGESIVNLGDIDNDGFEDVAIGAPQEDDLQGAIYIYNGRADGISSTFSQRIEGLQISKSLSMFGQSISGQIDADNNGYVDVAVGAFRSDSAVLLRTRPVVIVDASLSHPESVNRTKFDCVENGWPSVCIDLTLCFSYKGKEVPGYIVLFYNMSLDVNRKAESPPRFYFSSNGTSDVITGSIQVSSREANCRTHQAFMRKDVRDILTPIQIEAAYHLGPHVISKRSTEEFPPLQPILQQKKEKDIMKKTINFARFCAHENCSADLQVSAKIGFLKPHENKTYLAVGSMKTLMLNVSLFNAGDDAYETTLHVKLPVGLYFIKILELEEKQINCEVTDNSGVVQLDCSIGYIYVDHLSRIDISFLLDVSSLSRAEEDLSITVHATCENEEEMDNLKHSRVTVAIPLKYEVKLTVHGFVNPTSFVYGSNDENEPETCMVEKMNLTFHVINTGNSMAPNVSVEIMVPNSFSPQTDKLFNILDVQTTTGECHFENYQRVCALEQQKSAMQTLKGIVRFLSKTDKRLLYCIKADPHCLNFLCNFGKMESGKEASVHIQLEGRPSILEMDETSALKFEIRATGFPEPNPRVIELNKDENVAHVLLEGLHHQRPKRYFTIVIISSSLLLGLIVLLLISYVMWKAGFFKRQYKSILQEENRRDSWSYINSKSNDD
Chain of α4β7 (P26010 20-798): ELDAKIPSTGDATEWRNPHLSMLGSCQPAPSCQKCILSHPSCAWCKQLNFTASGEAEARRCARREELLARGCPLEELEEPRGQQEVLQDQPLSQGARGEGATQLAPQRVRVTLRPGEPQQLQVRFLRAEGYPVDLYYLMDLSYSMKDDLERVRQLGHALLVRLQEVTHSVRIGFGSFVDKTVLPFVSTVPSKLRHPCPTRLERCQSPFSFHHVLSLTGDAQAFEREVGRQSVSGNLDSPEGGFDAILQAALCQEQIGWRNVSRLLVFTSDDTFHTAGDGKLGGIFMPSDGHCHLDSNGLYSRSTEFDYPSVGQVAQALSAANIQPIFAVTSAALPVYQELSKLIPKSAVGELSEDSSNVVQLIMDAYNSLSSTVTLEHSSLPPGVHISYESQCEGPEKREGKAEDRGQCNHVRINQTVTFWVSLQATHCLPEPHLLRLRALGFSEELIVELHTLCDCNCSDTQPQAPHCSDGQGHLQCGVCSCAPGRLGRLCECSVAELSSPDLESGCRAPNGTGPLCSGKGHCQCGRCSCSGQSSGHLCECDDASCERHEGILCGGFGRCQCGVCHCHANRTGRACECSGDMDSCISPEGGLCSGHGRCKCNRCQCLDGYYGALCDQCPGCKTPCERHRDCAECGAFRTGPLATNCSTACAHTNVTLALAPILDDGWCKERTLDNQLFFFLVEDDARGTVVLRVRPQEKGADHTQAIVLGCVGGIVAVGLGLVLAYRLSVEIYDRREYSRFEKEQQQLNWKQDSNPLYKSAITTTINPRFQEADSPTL

This test deals with α4β7 (Homo sapiens, UniProt P13612+P26010). Put plainly: α4β7-MAdCAM Cell Adhesion Assay (RPMI 8866 human cells). The arrangement: host or cells: RPMI 8866 human B lymphoblastoid cells. The format is cell-based. Particulars: Table 3-B, Potency (α4β7); range classes; read-out: α4β7 cell (Hu) IC50. As for the experimental part:
RPMI 8866 human cells (Sigma #95041316) were cultured in RPMI 1640 HEPES medium (Invitrogen #22400-089) supplemented with 10% serum (Fetal Bovine Serum, Invitrogen #16140-071), 1 mM sodium pyruvate (Invitrogen #11360-070), 2 mM L-glutamine (Invitrogen #25030-081) and Penicillin-Streptomycin (Invitrogen #15140-122) at 100 units of penicillin and 100 μg of streptomycin per ml. The cells were washed two times in DMEM medium (ATCC #30-2002) supplemented with 0.1% BSA, 10 mM HEPES pH 7 and 1 mM MnCl2. The cells were re-suspended in supplemented DMEM medium at a density of 4×10^6 cells/ml.
A Nunc MaxiSorp plate was coated with rh MAdCAM-1/Fc Chimera (R&D #6065-MC) at 200 ng per well in 50 ul per well in 1×PBS and incubated at 4° C. overnight. The solution was then removed by shaking, blocked with 250 ul per well PBS containing 1% BSA, and incubated at 37° C. for 1 hr. The solution was removed by shaking. Peptides were diluted by serial dilution in a final volume of 50 ul per well (2× concentration). To each well, 50 ul of cells (200,000 cells) were added and the plate was incubated at 37° C., 5% CO2 for 30-45 min to allow cell adhesion. The wells were washed manually three times (100 ul per wash) with supplemented DMEM. After the final wash, 100 ul/well of supplemented DMEM and 10 ul/well of MTT reagent (ATTC cat#30-1010K) were added. The plate was incubated at 37° C., 5% CO2 for 2-3 hrs until a purple precipitate was visible. 100 ul of Detergent Reagent (ATTC cat#30-1010K) was added to each well. The plate was covered from the light, wrapped in Parafilm to prevent evaporation, and left overnight at room temperature in the dark. The plate was shaken for 5 min and the absorbance at 570 nm was measured. To calculate the dose response, the absorbance value of control wells not containing cells was subtracted from each test well.
Turning to `CC(=O)N[C@@H]1C(=O)N(C)[C@@H](CCCNC(=N)N)C(=O)N[C@@H](CO)C(=O)N[C@@H](CC(=O)O)C(=O)N[C@@H]([C@@H](C)O)C(=O)N[C@@H](CC(C)C)C(=O)N[C@H](C(=O)N[C@@H](Cc2c[nH]cn2)C(=O)N[C@@H](CCC(=O)O)C(=O)N[C@H](CCCCNC(=O)COCC(=O)NCCCC[C@@H](NC(=O)[C@H](CCC(=O)O)NC(=O)[C@H](Cc2c[nH]cn2)NC(=O)[C@H]2NC(=O)[C@H](CC(C)C)NC(=O)[C@H]([C@@H](C)O)NC(=O)[C@H](CC(=O)O)NC(=O)[C@H](CO)NC(=O)[C@H](CCCNC(=N)N)N(C)C(=O)[C@@H](NC(C)=O)C(C)(C)SSC2(C)C)C(N)=O)C(N)=O)C(C)(C)SSC1(C)C` [compound 25] (I: Ac-[Pen][NMeR]SDTL[Pen]HE[dK]-NH2 / II: Ac-[Pen][NMeR]SDTL[Pen]HE[dK]-NH2; disulfide I:1-I:7, II:1-II:7; linker I:10-II:10 via Diglycolyl), the pIC50 is 7.60 to 8.00.

Take `CC(=O)N[C@@H]1C(=O)N(C)[C@@H](CCCNC(=N)N)C(=O)N[C@@H](CO)C(=O)N[C@@H](CC(=O)O)C(=O)N[C@@H]([C@@H](C)O)C(=O)N[C@@H](CC(C)C)C(=O)N[C@H](C(=O)N[C@@H](Cc2c[nH]cn2)C(=O)N[C@@H](Cc2ccc(O)cc2)C(=O)N[C@H](CCCCNC(=O)COCC(=O)NCCCC[C@@H](NC(=O)[C@H](Cc2ccc(O)cc2)NC(=O)[C@H](Cc2c[nH]cn2)NC(=O)[C@H]2NC(=O)[C@H](CC(C)C)NC(=O)[C@H]([C@@H](C)O)NC(=O)[C@H](CC(=O)O)NC(=O)[C@H](CO)NC(=O)[C@H](CCCNC(=N)N)N(C)C(=O)[C@@H](NC(C)=O)C(C)(C)SSC2(C)C)C(N)=O)C(N)=O)C(C)(C)SSC1(C)C` [compound 26] (I: Ac-[Pen][NMeR]SDTL[Pen]HY[dK]-NH2 / II: Ac-[Pen][NMeR]SDTL[Pen]HY[dK]-NH2; disulfide I:1-I:7, II:1-II:7; linker I:10-II:10 via Diglycolyl): the pIC50 was 6.30 to 7.00. As to `CC(=O)N[C@@H]1C(=O)N(C)[C@@H](CCCNC(=N)N)C(=O)N[C@@H](CO)C(=O)N[C@@H](CC(=O)O)C(=O)N[C@@H]([C@@H](C)O)C(=O)N[C@@H](CC(C)C)C(=O)N[C@H](C(=O)N[C@H](Cc2c[nH]c3ccccc23)C(=O)N[C@@H](CCC(=O)O)C(=O)N[C@H](CCCCNC(=O)COCC(=O)NCCCC[C@@H](NC(=O)[C@H](CCC(=O)O)NC(=O)[C@@H](Cc2c[nH]c3ccccc23)NC(=O)[C@H]2NC(=O)[C@H](CC(C)C)NC(=O)[C@H]([C@@H](C)O)NC(=O)[C@H](CC(=O)O)NC(=O)[C@H](CO)NC(=O)[C@H](CCCNC(=N)N)N(C)C(=O)[C@@H](NC(C)=O)C(C)(C)SSC2(C)C)C(N)=O)C(N)=O)C(C)(C)SSC1(C)C` [compound 28] (I: Ac-[Pen][NMeR]SDTL[Pen][dW]E[dK]-NH2 / II: Ac-[Pen][NMeR]SDTL[Pen][dW]E[dK]-NH2; disulfide I:1-I:7, II:1-II:7; linker I:10-II:10 via Diglycolyl), the pIC50 is 7.00 to 7.30. The same measure for `CC(=O)N[C@@H]1C(=O)N(C)[C@@H](CCCNC(=N)N)C(=O)N[C@@H](CO)C(=O)N[C@@H](CC(=O)O)C(=O)N[C@@H]([C@@H](C)O)C(=O)N[C@@H](CC(C)C)C(=O)N[C@H](C(=O)N[C@H](Cc2ccccc2)C(=O)N[C@@H](CCC(=O)O)C(=O)N[C@H](CCCCNC(=O)COCC(=O)NCCCC[C@@H](NC(=O)[C@H](CCC(=O)O)NC(=O)[C@@H](Cc2ccccc2)NC(=O)[C@H]2NC(=O)[C@H](CC(C)C)NC(=O)[C@H]([C@@H](C)O)NC(=O)[C@H](CC(=O)O)NC(=O)[C@H](CO)NC(=O)[C@H](CCCNC(=N)N)N(C)C(=O)[C@@H](NC(C)=O)C(C)(C)SSC2(C)C)C(N)=O)C(N)=O)C(C)(C)SSC1(C)C` [compound 30] (I: Ac-[Pen][NMeR]SDTL[Pen][dF]E[dK]-NH2 / II: Ac-[Pen][NMeR]SDTL[Pen][dF]E[dK]-NH2; disulfide I:1-I:7, II:1-II:7; linker I:10-II:10 via Diglycolyl): 6.30 to 7.00; for `CC(=O)N[C@@H]1C(=O)N(C)[C@@H](CCCNC(=N)N)C(=O)N[C@@H](CO)C(=O)N[C@@H](CC(=O)O)C(=O)N[C@@H]([C@@H](C)O)C(=O)N[C@@H](CC(C)C)C(=O)N[C@H](C(=O)N[C@@H](Cc2c[nH]c3ccccc23)C(=O)N(C)[C@@H](CCC(=O)O)C(=O)N[C@H](CCCCNC(=O)COCC(=O)NCCCC[C@@H](NC(=O)[C@H](CCC(=O)O)N(C)C(=O)[C@H](Cc2c[nH]c3ccccc23)NC(=O)[C@H]2NC(=O)[C@H](CC(C)C)NC(=O)[C@H]([C@@H](C)O)NC(=O)[C@H](CC(=O)O)NC(=O)[C@H](CO)NC(=O)[C@H](CCCNC(=N)N)N(C)C(=O)[C@@H](NC(C)=O)C(C)(C)SSC2(C)C)C(N)=O)C(N)=O)C(C)(C)SSC1(C)C` [compound 31] (I: Ac-[Pen][NMeR]SDTL[Pen]W[NMeE][dK]-NH2 / II: Ac-[Pen][NMeR]SDTL[Pen]W[NMeE][dK]-NH2; disulfide I:1-I:7, II:1-II:7; linker I:10-II:10 via Diglycolyl): 7.00 to 7.30.

Regarding `CC(=O)N[C@@H]1C(=O)N(C)[C@@H](CCCNC(=N)N)C(=O)N[C@@H](CO)C(=O)N[C@@H](CC(=O)O)C(=O)N[C@@H]([C@@H](C)O)C(=O)N[C@@H](CC(C)C)C(=O)N[C@H](C(=O)N[C@H](Cc2cccc3ccccc23)C(=O)N[C@@H](CCC(=O)O)C(=O)N[C@H](CCCCNC(=O)COCC(=O)NCCCC[C@@H](NC(=O)[C@H](CCC(=O)O)NC(=O)[C@@H](Cc2cccc3ccccc23)NC(=O)[C@H]2NC(=O)[C@H](CC(C)C)NC(=O)[C@H]([C@@H](C)O)NC(=O)[C@H](CC(=O)O)NC(=O)[C@H](CO)NC(=O)[C@H](CCCNC(=N)N)N(C)C(=O)[C@@H](NC(C)=O)C(C)(C)SSC2(C)C)C(N)=O)C(N)=O)C(C)(C)SSC1(C)C` [compound 34] (I: Ac-[Pen][NMeR]SDTL[Pen][d1Nal]E[dK]-NH2 / II: Ac-[Pen][NMeR]SDTL[Pen][d1Nal]E[dK]-NH2; disulfide I:1-I:7, II:1-II:7; linker I:10-II:10 via Diglycolyl), the pIC50 was 7.30 to 7.60. The same measure for `CC(=O)N[C@@H]1C(=O)N(C)[C@@H](CCCNC(=N)N)C(=O)N[C@@H](CO)C(=O)N[C@@H](CC(=O)O)C(=O)N[C@@H]([C@@H](C)O)C(=O)N[C@@H](CC(C)C)C(=O)N[C@H](C(=O)N[C@H](Cc2ccc3ccccc3c2)C(=O)N[C@@H](CCC(=O)O)C(=O)N[C@H](CCCCNC(=O)COCC(=O)NCCCC[C@@H](NC(=O)[C@H](CCC(=O)O)NC(=O)[C@@H](Cc2ccc3ccccc3c2)NC(=O)[C@H]2NC(=O)[C@H](CC(C)C)NC(=O)[C@H]([C@@H](C)O)NC(=O)[C@H](CC(=O)O)NC(=O)[C@H](CO)NC(=O)[C@H](CCCNC(=N)N)N(C)C(=O)[C@@H](NC(C)=O)C(C)(C)SSC2(C)C)C(N)=O)C(N)=O)C(C)(C)SSC1(C)C` [compound 35] (I: Ac-[Pen][NMeR]SDTL[Pen][d2Nal]E[dK]-NH2 / II: Ac-[Pen][NMeR]SDTL[Pen][d2Nal]E[dK]-NH2; disulfide I:1-I:7, II:1-II:7; linker I:10-II:10 via Diglycolyl): 6.30 to 7.00; for `CC(=O)N[C@H]1CSSC(C)(C)[C@@H](C(=O)N[C@@H](Cc2c[nH]c3ccccc23)C(=O)N[C@H](CCCCNC(=O)CCOCCOCCOCCOCCOCCOCCOCCOCCOCCOCCOCCOCCOCCOCCC(=O)NCCCC[C@@H](NC(=O)[C@H](Cc2c[nH]c3ccccc23)NC(=O)[C@H]2NC(=O)[C@H](CC(C)C)NC(=O)[C@H]([C@@H](C)O)NC(=O)[C@H](CC(=O)O)NC(=O)[C@H](CO)NC(=O)[C@H](CCCNC(=N)N)N(C)C(=O)[C@@H](NC(C)=O)CSSC2(C)C)C(N)=O)C(N)=O)NC(=O)[C@H](CC(C)C)NC(=O)[C@H]([C@@H](C)O)NC(=O)[C@H](CC(=O)O)NC(=O)[C@H](CO)NC(=O)[C@H](CCCNC(=N)N)N(C)C1=O` [compound 36] (I: Ac-C[NMeR]SDTL[Pen]W[dK]-NH2 / II: Ac-C[NMeR]SDTL[Pen]W[dK]-NH2; disulfide I:1-I:7, II:1-II:7; linker I:9-II:9 via X4): 7.00 to 7.30; for `CC(=O)N[C@H]1CSSC(C)(C)[C@@H](C(=O)N[C@@H](Cc2c[nH]c3ccccc23)C(=O)N[C@H](CCCCNC(=O)CCOCCOCCOCCOCCOCCOCCOCCOCCOCCOCCOCCOCCOCCOCCOCCOCCOCCOCCOCCOCCOCCOCCOCCOCCOCCOCCC(=O)NCCCC[C@@H](NC(=O)[C@H](Cc2c[nH]c3ccccc23)NC(=O)[C@H]2NC(=O)[C@H](CC(C)C)NC(=O)[C@H]([C@@H](C)O)NC(=O)[C@H](CC(=O)O)NC(=O)[C@H](CO)NC(=O)[C@H](CCCNC(=N)N)N(C)C(=O)[C@@H](NC(C)=O)CSSC2(C)C)C(N)=O)C(N)=O)NC(=O)[C@H](CC(C)C)NC(=O)[C@H]([C@@H](C)O)NC(=O)[C@H](CC(=O)O)NC(=O)[C@H](CO)NC(=O)[C@H](CCCNC(=N)N)N(C)C1=O` [compound 37] (I: Ac-C[NMeR]SDTL[Pen]W[dK]-NH2 / II: Ac-C[NMeR]SDTL[Pen]W[dK]-NH2; disulfide I:1-I:7, II:1-II:7; linker I:9-II:9 via X1): 6.30 to 7.00.
